Source: BindingDB's records for doi:10.1021/jm9012642 (Wyeth Research, 2009)

Target: Serine/threonine-protein kinase mTOR (Homo sapiens, UniProt P42345)
Test: mTOR Kinase Assay
Conditions: 25 °C

IC50: 47 nM
Compound: Oc1cccc(-c2nc(N3CCOCC3)c3cnn(C4CCN(Cc5cccnc5)CC4)c3n2)c1 [JMC527081 Compound 5f]
